This passage reports inhibition and IC50 results from patent US10093630B2, “Pyrazole compounds and methods of making and using same” (ABIDE THERAPEUTICS, INC., priority 2014, dated 2018).

For orientation: inhibition means the drop in the measured response relative to a control, in per cent. Usually IC50 stands for the midpoint of a concentration-inhibition curve.

Bounds are passed on as bounds.

What all share (test): In vitro competitive activity-based protein profiling (gel-based, FP-Rh or HT-01 probe)
Holding throughout (assay type): biochemical

The target in one experiment is T1, MAGL (Mus musculus, UniProt O35678).
T1 construct: Proteomes (mouse brain membrane fraction or cell lysates); from tissue; host or cells: mouse brain membrane fraction (or cell lysates, not specified)
T1 sequence (O35678 1-303): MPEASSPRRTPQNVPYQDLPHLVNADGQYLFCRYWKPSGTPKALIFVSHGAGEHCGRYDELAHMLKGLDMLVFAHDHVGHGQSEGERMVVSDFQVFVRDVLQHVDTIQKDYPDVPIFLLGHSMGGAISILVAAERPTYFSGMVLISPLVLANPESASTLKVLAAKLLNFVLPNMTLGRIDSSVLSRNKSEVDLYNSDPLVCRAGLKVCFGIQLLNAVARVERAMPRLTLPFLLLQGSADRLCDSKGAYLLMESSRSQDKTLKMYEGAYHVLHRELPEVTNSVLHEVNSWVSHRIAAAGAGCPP
The note with it: for inhibition at 1 µM: 1 μM inhibitor; for inhibition at 10 µM: 10 μM inhibitor; for IC50: mouse brain membrane fraction or cell lysates, 30 min preincubation at 37° C., read-out: Mouse (IC50 value, nM) MAGL. The protocol:
(§1) In Vitro Competitive Activity-Based Protein Profiling.
(§2) Proteomes (mouse brain membrane fraction or cell lysates) (50 μL, 1.0 mg/mL total protein concentration) were preincubated with varying concentrations of inhibitors at 37° C. After 30 min, FP-Rh or HT-01 ([…], 50 μM in DMSO) was added and the mixture was incubated for another 30 min at 37° C. Reactions were quenched with SDS loading buffer (15 μL—4×) and run on SDS-PAGE. Following gel imaging, serine hydrolase activity was determined by measuring fluorescent intensity of gel bands corresponding to MAGL, ABHD6, FAAH, and PLA2G7 using ImageJ 1.43u software.

The next experiment addresses T2, ABHD6 (Mus musculus, UniProt Q8R2Y0).
T2 construct: Proteomes (mouse brain membrane fraction or cell lysates); from tissue; host or cells: mouse brain membrane fraction (or cell lysates, not specified)
T2 sequence (Q8R2Y0 1-336): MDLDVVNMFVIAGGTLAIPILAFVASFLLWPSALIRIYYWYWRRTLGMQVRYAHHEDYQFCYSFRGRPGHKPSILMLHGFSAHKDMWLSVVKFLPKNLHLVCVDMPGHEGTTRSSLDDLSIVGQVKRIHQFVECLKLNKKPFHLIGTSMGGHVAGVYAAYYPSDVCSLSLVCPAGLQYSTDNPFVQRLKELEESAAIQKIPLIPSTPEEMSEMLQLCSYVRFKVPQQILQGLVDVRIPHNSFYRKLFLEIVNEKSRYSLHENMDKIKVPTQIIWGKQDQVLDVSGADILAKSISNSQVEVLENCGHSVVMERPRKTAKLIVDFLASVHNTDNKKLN
The note with it: for inhibition at 1 µM: 1 μM inhibitor, read-out: % Inhibition at 1 μM, C = ABHD6; for inhibition at 10 µM: 10 μM inhibitor, read-out: % Inhibition at 10 μM, C = ABHD6; for IC50: mouse brain membrane fraction or cell lysates, 30 min preincubation at 37° C., read-out: Mouse (IC50 value, nM) ABHD6. The protocol:
as §1, §2

The next experiment concerns the target T3, FAAH (Mus musculus, UniProt O08914).
T3 construct: Proteomes (mouse brain membrane fraction or cell lysates); from tissue; host or cells: mouse brain membrane fraction (or cell lysates, not specified)
T3 sequence (O08914 1-579): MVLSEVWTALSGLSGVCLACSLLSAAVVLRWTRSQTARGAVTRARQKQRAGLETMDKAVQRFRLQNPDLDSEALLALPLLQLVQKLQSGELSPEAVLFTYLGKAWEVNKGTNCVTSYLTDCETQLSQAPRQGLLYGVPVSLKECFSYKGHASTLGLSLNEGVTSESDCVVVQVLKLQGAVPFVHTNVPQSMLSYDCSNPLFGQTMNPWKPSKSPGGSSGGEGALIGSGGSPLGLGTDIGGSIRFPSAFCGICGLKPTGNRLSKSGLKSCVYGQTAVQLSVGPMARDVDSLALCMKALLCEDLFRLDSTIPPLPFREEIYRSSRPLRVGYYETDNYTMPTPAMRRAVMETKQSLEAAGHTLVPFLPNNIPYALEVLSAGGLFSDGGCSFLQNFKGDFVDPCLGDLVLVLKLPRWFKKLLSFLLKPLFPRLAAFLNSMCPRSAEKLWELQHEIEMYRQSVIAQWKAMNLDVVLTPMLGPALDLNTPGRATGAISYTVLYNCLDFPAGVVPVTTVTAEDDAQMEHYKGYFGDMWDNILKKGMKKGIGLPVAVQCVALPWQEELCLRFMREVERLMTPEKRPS
The note with it: for inhibition at 1 µM: 1 μM inhibitor, read-out: % Inhibition at 1 μM, B = FAAH; for inhibition at 10 µM: 10 μM inhibitor, read-out: % Inhibition at 10 μM, B = FAAH; for IC50: mouse brain membrane fraction or cell lysates, 30 min preincubation at 37° C., read-out: Mouse (IC50 value, nM) FAAH. As for the experimental part:
as §1, §2

For `O=C(c1cnn(C(=O)N2CCN(C(c3ccc(Cl)cc3)c3ccc(Cl)cc3)CC2)c1)N1CCCCC1` [Example 66, (4-(Bis(4-chlorophenyl)methyl)piperazin-1-yl)(4-(piperidine-1-carbonyl)-1H-pyrazol-1-yl)methanone], the inhibition at 1 µM at MAGL was more than 75%; at ABHD6 it was more than 75%; at FAAH, less than 25%. Moreover, the inhibition at 10 µM at MAGL is more than 75%; on ABHD6 it was more than 75%; on FAAH, 25 to 75%. Further, the IC50 on MAGL is 100 to 1000 nM; on ABHD6, 100 to 1000 nM; at FAAH, more than 1000 nM.
In the case of `O=C(N1CCCCC1)n1cc(Cl)cn1` [Example 96, (4-Chloro-1H-pyrazol-1-yl)(piperidin-1-yl)methanone], the inhibition at 10 µM at MAGL, on ABHD6 and on FAAH was more than 75% in each case.
Turning to `O=C(N1CCN(C(c2ccc(Cl)cc2)c2ccc(Cl)cc2)CC1)n1cc(C(F)(F)F)cn1` [Example 118, (4-(Bis(4-chlorophenyl)methyl)piperazin-1-yl)(4-(trifluoromethyl)-1H-pyrazol-1-yl)methanone], at MAGL, the inhibition at 1 µM was more than 75%, the inhibition at 10 µM is more than 75% and the IC50 is less than 100 nM. For the same compound, at ABHD6, the inhibition at 1 µM was more than 75%, the inhibition at 10 µM was more than 75% and the 50% inhibitory concentration (IC50) fell in the range of 100 to 1000 nM. Further, at FAAH, the inhibition at 1 µM was less than 25%, the inhibition at 10 µM was more than 75% and the IC50 was more than 1000 nM.
Take `O=C(N1CCN(C(c2ccc(Cl)cc2)c2ccc(Cl)cc2)CC1)n1cccn1` [Example 46, (4-(Bis(4-chlorophenyl)methyl)piperazin-1-yl)(1H-pyrazol-1-yl)methanone]: the IC50 on MAGL was less than 100 nM; on ABHD6, more than 1000 nM; at FAAH, more than 1000 nM.
For the compound `O=C(N1CCN(C(c2ccc(Cl)cc2)c2ccc(Cl)cc2)CC1)n1cc(Cl)cn1` [Example 100, (4-(Bis(4-chlorophenyl)methyl)piperazin-1-yl)(4-chloro-1H-pyrazol-1-yl)methanone], the 50% inhibitory concentration (IC50) on MAGL is less than 100 nM; on ABHD6, 100 to 1000 nM; at FAAH, more than 1000 nM.
Consider `Cc1cnn(C(=O)N(C)CCN(C)S(C)(=O)=O)c1` [Example 196, N,4-Dimethyl-N-(2-(N-methylmethylsulfonamido)ethyl)-1H-pyrazole-1-carboxamide], for which the inhibition at 10 µM at MAGL, on ABHD6 and at FAAH was less than 25% each time.
In the case of `O=C(N1CCN(Cc2ccc(C(F)(F)F)cc2N2CCCC2)CC1)n1cc(F)cn1` [Example 126, (4-Fluoro-1H-pyrazol-1-yl)(4-(2-(pyrrolidin-1-yl)-4-(trifluoromethyl)benzyl)piperazin-1-yl)methanone], the inhibition at 1 µM on MAGL, at ABHD6 and on FAAH was more than 75% throughout. Moreover, the IC50 on MAGL is less than 100 nM; on ABHD6, 100 to 1000 nM; on FAAH, 100 to 1000 nM.
For `O=C(N1CCN(C(c2ccc(Cl)cc2)c2ccc(Cl)cc2)CC1)n1cc(F)cn1` [Example 121, (4-(Bis(4-chlorophenyl)methyl)piperazin-1-yl)(4-fluoro-1H-pyrazol-1-yl)methanone], at MAGL, the inhibition at 1 µM is more than 75%, the inhibition at 10 µM is more than 75% and the IC50 was less than 100 nM. Also, on ABHD6, the inhibition at 1 µM is less than 25%, the inhibition at 10 µM is more than 75% and the IC50 is more than 1000 nM. Also, on FAAH, the inhibition at 1 µM is less than 25%, the inhibition at 10 µM is more than 75% and the IC50 was more than 1000 nM.
For `CC(C)c1cnn(C(=O)N2CCN(C(c3ccc(Cl)cc3)c3ccc(Cl)cc3)CC2)c1` [Example 120, (4-(Bis(4-chlorophenyl)methyl)piperazin-1-yl)(4-isopropyl-1H-pyrazol-1-yl)methanone], the inhibition at 1 µM on MAGL is 25 to 75%; at ABHD6, 25 to 75%; at FAAH, less than 25%. Also, the inhibition at 10 µM on MAGL was more than 75%; on ABHD6 it was more than 75%; at FAAH it was less than 25%.
Take `CC(=O)N1CCCN(C(=O)n2cc(Cl)cn2)CC1` [Example 188, 1-(4-(4-Chloro-1H-pyrazole-1-carbonyl)-1,4-diazepan-1-yl)ethanone]: the inhibition at 10 µM at MAGL was less than 25%; on ABHD6 it was 25 to 75%; at FAAH it was less than 25%.
Consider `O=C(N1CCN(Cc2c(N3CCCC3)cccc2C(F)(F)F)CC1)n1cc(Cl)cn1` [Example 99, (4-Chloro-1H-pyrazol-1-yl)(4-(2-(pyrrolidin-1-yl)-6-(trifluoromethyl)benzyl)piperazin-1-yl)methanone], for which the inhibition at 1 µM on MAGL, on ABHD6 and at FAAH was more than 75% in each case.
Turning to `Cc1ccccc1-c1cnn(C(=O)N2CCN(Cc3c(N4CCCC4)cccc3C(F)(F)F)CC2)c1` [Example 114, (4-(2-(Pyrrolidin-1-yl)-6-(trifluoromethyl)benzyl)piperazin-1-yl)(4-(o-tolyl)-1H-pyrazol-1-yl)methanone], the inhibition at 1 µM at MAGL is less than 25%; at ABHD6 it was more than 75%; at FAAH, less than 25%. Also, the inhibition at 10 µM at MAGL was less than 25%; on ABHD6 it was more than 75%; at FAAH it was 25 to 75%. In addition, the IC50 on ABHD6 is 100 to 1000 nM.
Regarding `O=C(N1CCCC1)n1cc(Cl)cn1` [Example 98, (4-Chloro-1H-pyrazol-1-yl)(pyrrolidin-1-yl)methanone], the results for the inhibition at 10 µM on MAGL, on ABHD6 and on FAAH were 25 to 75%, less than 25% and more than 75%, respectively.
Take `O=C(N1CCN(Cc2c(N3CCCC3)cccc2C(F)(F)F)CC1)n1cc(F)cn1` [Example 113, (4-Fluoro-1H-pyrazol-1-yl)(4-(2-(pyrrolidin-1-yl)-6-(trifluoromethyl)benzyl)piperazin-1-yl)methanone]: the inhibition at 1 µM at MAGL was more than 75%; on ABHD6, more than 75%; on FAAH it was 25 to 75%. The inhibition at 10 µM on MAGL, on ABHD6 and at FAAH was more than 75% throughout. The results for the IC50 at MAGL, on ABHD6 and on FAAH were less than 100 nM, 100 to 1000 nM and more than 1000 nM, respectively.
In the case of `CN1CCCN(C(=O)n2cc(Cl)cn2)CC1` [Example 190, (4-Chloro-1H-pyrazol-1-yl)(4-methyl-1,4-diazepan-1-yl)methanone], the inhibition at 10 µM on MAGL, on ABHD6 and at FAAH was less than 25% in each case.
With `O=C(N1CCN(C(c2ccc3c(c2)COC3)c2ccc3c(c2)COC3)CC1)n1cc(Cl)cn1` [Example 95, (4-(Bis(1,3-dihydroisobenzofuran-5-yl)methyl)piperazin-1-yl)(4-chloro-1H-pyrazol-1-yl)methanone], the inhibition at 1 µM on MAGL is more than 75%; at ABHD6, more than 75%; on FAAH it was less than 25%.
